Test results published in patent US20250154201A1, “PEPTIDE BINDING TO MESOTHELIN, AND USE THEREOF” (KYUNGPOOK NATIONAL UNIVERSITY INDUSTRY-ACADEMIC COOPERATION …, priority 2022, published 2025).

Legend:
mesothelin [1] = biological target: T1, mesothelin (Homo sapiens, UniProt Q13421); assay: phage-binding ELISA and phage immunofluorescence staining of phage clones; design: GFP; host or cells: HEK293T; conditions: phage clone, compared to other phage clones
From the text: A phage peptide library based on the T7 415-1b phage vector, represented by CX7C (C, cysteine; X, any amino acid residue) was designed according to the manufacturer's instructions (Novagen, Madison, WI). The phage library has approximately 1×10^9 plaque-forming unit (pfu). In other words, HEK-293T cells transfected with a mesothelin-expressing plasmid pCMV6-AC-GFP vector were dispensed in a 35 mm dish and cultured to meet a confluency of 60-70%. For transient transfection of HEK-293T cells, the cells were treated with Lipofectamine 3000 (Invitrogen) and cultured for 48 hours. First, phage libraries with 1×109 plaque-forming unit (pfu) were cultured in untransfected HEK-293T cells at 4° C. for 30 minutes. […] The eluate was used for titration, the remaining eluted phage clones were lysed in 10 ml of LB medium for amplification for the next cycle, and the process was repeated 5 times. […]
To screen peptides specifically binding to mesothelin, the present inventors first prepared HEK-293T cells transiently transfected with a mesothelin-GFP plasmid. […] As a result of observing mesothelin-GFP expression via immunofluorescence analysis, transfection was detected at each time point compared to untransfected HEK-293T cells (FIG. 2A). […]
Target sequence in this assay (Q13421 with tags, fused parts or gaps): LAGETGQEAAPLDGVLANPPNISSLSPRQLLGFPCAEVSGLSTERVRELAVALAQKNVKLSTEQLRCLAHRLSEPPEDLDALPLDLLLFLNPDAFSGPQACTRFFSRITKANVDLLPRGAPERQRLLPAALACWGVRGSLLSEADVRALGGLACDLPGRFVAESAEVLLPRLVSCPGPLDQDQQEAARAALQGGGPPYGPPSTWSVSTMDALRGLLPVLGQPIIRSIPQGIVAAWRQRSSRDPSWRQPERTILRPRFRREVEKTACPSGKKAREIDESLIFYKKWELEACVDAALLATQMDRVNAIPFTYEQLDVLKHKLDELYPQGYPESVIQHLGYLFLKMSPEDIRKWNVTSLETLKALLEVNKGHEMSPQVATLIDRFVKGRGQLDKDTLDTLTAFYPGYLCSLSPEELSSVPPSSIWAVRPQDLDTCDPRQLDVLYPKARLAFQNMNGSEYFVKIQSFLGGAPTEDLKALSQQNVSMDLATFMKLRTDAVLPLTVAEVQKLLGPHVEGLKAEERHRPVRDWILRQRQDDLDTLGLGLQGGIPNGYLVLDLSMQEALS

[2] = system: mesothelin-expressing pancreatic cancer cell lines AsPC-1, PANC-1, BxPC-3, and MiaPaCa-2; assay: immunofluorescence binding of MSLN-pep to pancreatic cancer cell lines; format: cell-based, human; conditions: 10 μM and 25 μM MSLN-pep
From the text: Taken together, it was found via immunofluorescence analysis that MSLN-pep specifically binds to mesothelin.

[3] = system: AsPC-1 cells expressing mesothelin; assay: binding to AsPC-1 cells after mesothelin siRNA (confocal immunofluorescence and flow cytometry); format: cell-based, human; conditions: for specific binding (flow cytometry): 25 μM MSLN-pep
Procedure: Mesothelin-specific siRNA (M-siRNA) and negative control siRNA (C-siRNA) were purchased from Bioneer and transfected with Lipofectamine RNAiMAX transfection reagent (Invitrogen) into AsPC-1, a pancreatic cancer cell line. After 24 hours of transfection, the media were replaced with a medium containing serum, followed by culture for an additional 24 hours.
After AsPC-1 cells were cultured for 24 hours, for suppression of mesothelin expression, transfection followed with C-siRNA, a non-specific siRNA, as well as M-siRNA, a mesothelin-specific siRNA. To detect the silencing of the mesothelin gene, the group was divided into one without treatment of siRNA, one with treatment of 100 nM C-siRNA, and one with treatment of 100 nM and 200 nM M-siRNA. Mesothelin antibody and MSLN-pep were then treated by 10 μM and 25 μM, respectively. Further, the results were identified by means of confocal microscopy via immunofluorescence analysis (FIG. 6A). […] Flow cytometry was performed to determine the expression level of mesothelin when siRNA was not treated to AsPC-1 cells and the expression level of mesothelin after C-siRNA and M-siRNA were treated, of which values were expressed in % binding with the mesothelin antibody and the mean fluorescence intensity (MFI). […] As a result of performing flow cytometry to determine the difference between the binding of 25 μM MSLN-pep when siRNA was not treated to AsPC-1 cells expressing mesothelin and the binding of 25 μM MSLN-pep after treating with C-siRNA and M-siRNA, when treated with no siRNA or treated with 100 nM C-siRNA, the specific binding of 25 μM MSLN-pep was approximately 78%, and when treated with 100 nM and 200 nM M-siRNA, it was approximately 15%. This series of results reveal the degree of mesothelin expression and the reduction of mesothelin expression when M-siRNA is treated. […] In brief, it was determined that MSLN-pep specifically binds to cells expressing mesothelin.

mesothelin [4] = biological target: T1, mesothelin; assay: co-localization of TAMRA-labeled MSLN-pep with mesothelin antibody (confocal microscopy); format: cell-based; design: endogenous in cells; conditions: AsPC-1, PANC-1, BxPC-3
Procedure: Pancreatic cancer cell lines AsPC-1, PANC-1, and BxPC-3 were cultured in a 4-well chamber and then treated with mesothelin antibodies to determine the location where mesothelin is expressed.
Target sequence in this assay (Q13421 with tags, fused parts or gaps limits assumed): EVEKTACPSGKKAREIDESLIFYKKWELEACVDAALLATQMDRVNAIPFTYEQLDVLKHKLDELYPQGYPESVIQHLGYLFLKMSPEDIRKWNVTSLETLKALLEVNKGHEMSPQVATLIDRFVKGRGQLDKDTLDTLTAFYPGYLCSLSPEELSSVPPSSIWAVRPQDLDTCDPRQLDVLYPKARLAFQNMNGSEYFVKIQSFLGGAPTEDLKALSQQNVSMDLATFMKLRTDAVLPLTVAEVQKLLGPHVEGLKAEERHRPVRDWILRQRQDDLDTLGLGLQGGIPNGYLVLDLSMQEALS

binding to mesothelin through phage ELISA and phage immunofluorescence staining (mesothelin [1]): binds to mesothelin in high degree
SMILES: CC[C@H](C)[C@@H]1NC(=O)[C@H]([C@@H](C)O)NC(=O)[C@@H](N)CSSC[C@@H](C(=O)O)NC(=O)[C@H]([C@@H](C)O)NC(=O)[C@H](CC(C)C)NC(=O)[C@H](CO)NC(=O)[C@H](Cc2c[nH]c3ccccc23)NC(=O)[C@H](CC(C)C)NC1=O [MSLN-pep]
specific binding (immunofluorescence) [2]: specific binding of MSLN-pep even at 10 μM with the further increase at 25 μM
specific binding (flow cytometry) ([3]; 100 nM and 200 nM M-siRNA): approximately 15%
specific binding (flow cytometry) ([3]; no siRNA or 100 nM C-siRNA): approximately 78%
specific binding to mesothelin (confocal immunofluorescence) ([3]; 25 μM compared to 10 μM): higher specific binding to mesothelin
specific binding (confocal immunofluorescence) ([3]; M-siRNA 100 nM and 200 nM): decreased with the decrease of mesothelin expression
location of binding site relative to mesothelin expression (mesothelin [4]): binding took place at the same spot where the mesothelin is expressed
